According to US20230017045A1, “PYRIDINE AND PYRIMIDINE CARBOXYLATE HERBICIDES AND METHODS OF USE THEREOF” (Dow AgroSciences LLC, priority 2017, published 2023):

Test system: test plant species
Assay: Post-emergent herbicidal activity test (greenhouse, foliar spray, visual growth reduction)
Assay type: in vivo
Settings: post-emergence, 336 h, ALOMY: blackgrass (Alopecurus myosuroides), 140 g ai/ha, 14 days after application, read-out: Visual Growth Reduction (%) 14 Days After Application, ALOMY
Description: Post-emergent Test: Seeds or nutlets of the desired test plant species were planted in Sun Gro Metro-Mix® 360 planting mixture, which typically has a pH of 6.0 to 6.8 and an organic matter content of about 30 percent, in plastic pots with a surface area of 64 square centimeters. In some aspects, to ensure good germination and healthy plants, a fungicide treatment and/or other chemical or physical treatment was applied. The plants were grown for 7-21 d in a greenhouse with an approximate 15 h photoperiod which was maintained at 23-29° C. during the day and 22-28° C. during the night. Nutrients and water were added on a regular basis and supplemental lighting was provided with overhead metal halide 1000-Watt lamps as necessary. Plants were used for testing when they reached the first or second true leaf stage. A weighed amount, determined by the highest rate to be tested, of each test compound was placed in a 25 mL glass vial and was dissolved in 4 mL of a 97:3 v/v mixture of acetone and DMSO to obtain concentrated stock solutions. […] The concentrated stock solutions obtained were diluted with 20 mL of an aqueous mixture containing acetone, water, isopropyl alcohol, DMSO, […] crop oil concentrate, and X-77 surfactant in a 48.5:39:10:1.5:1.0:0.02 v/v ratio to obtain spray solutions containing the application rate. Compound requirements are based upon a 12 mL application volume at a rate of 187 liters per hectare (L/ha). Formulated compounds were applied to the plant material with an overhead Mandel track sprayer equipped with […] nozzles calibrated to deliver 187 L/ha over an application area of 0.64 square meters at a spray height of 18 inches (43 cm) above the average plant canopy height. Control plants were sprayed in the same manner with the solvent blank. The treated plants and control plants were placed in a greenhouse as described above and watered by subirrigation to prevent wash-off of the test compounds. After 14 d, the condition of the test plants as compared with that of the nontreated and control plants was determined visually and scored on a scale of 0 to 100 percent where 0 corresponds to no injury and 100 corresponds to complete control. In the reporting of the results, Table A: Percent Growth Reduction Conversion Table was used.

SMILES | pest or weed control at 140 g/ha [%]
COc1c(Cl)ccc(-c2cc(Cl)c(Cl)c(C(=O)O)n2)c1F [F75, 3,4-Dichloro-6-(4-chloro-2-fluoro-3-methoxyphenyl) picolinic acid] | 0 to 29
COC(=O)c1nc(-c2ccc(Cl)c(N(C)C)c2)ccc1Cl [F149, Methyl 3-chloro-6-(4-chloro-3-(dimethylamino)phenyl)picolinate] | 0 to 29

Same assay, conditions: post-emergence, 336 h, AMARE: redroot pigweed (Amaranthus retroflexus), 140 g ai/ha, 14 days after application, read-out: Visual Growth Reduction (%) 14 Days After Application, AMARE

SMILES | pest or weed control at 140 g/ha [%]
COc1c(Cl)ccc(-c2cc(Cl)c(Cl)c(C(=O)O)n2)c1F [F75, 3,4-Dichloro-6-(4-chloro-2-fluoro-3-methoxyphenyl) picolinic acid] | 85 to 94
COC(=O)c1nc(-c2ccc(Cl)c(N(C)C)c2)ccc1Cl [F149, Methyl 3-chloro-6-(4-chloro-3-(dimethylamino)phenyl)picolinate] | 75 to 84

Same assay, conditions: post-emergence, 336 h, AVEFA: wild oat (Avena fatua), 140 g ai/ha, 14 days after application, read-out: Visual Growth Reduction (%) 14 Days After Application, AVEFA

SMILES | pest or weed control at 140 g/ha [%]
COc1c(Cl)ccc(-c2cc(Cl)c(Cl)c(C(=O)O)n2)c1F [F75, 3,4-Dichloro-6-(4-chloro-2-fluoro-3-methoxyphenyl) picolinic acid] | 0 to 29
COC(=O)c1nc(-c2ccc(Cl)c(N(C)C)c2)ccc1Cl [F149, Methyl 3-chloro-6-(4-chloro-3-(dimethylamino)phenyl)picolinate] | 0 to 29

Same assay, conditions: post-emergence, 336 h, CHEAL: lambsquarters (Chenopodium album), 140 g ai/ha, 14 days after application, read-out: Visual Growth Reduction (%) 14 Days After Application, CHEAL

SMILES | pest or weed control at 140 g/ha [%]
COc1c(Cl)ccc(-c2cc(Cl)c(Cl)c(C(=O)O)n2)c1F [F75, 3,4-Dichloro-6-(4-chloro-2-fluoro-3-methoxyphenyl) picolinic acid] | 95 to 100
COC(=O)c1nc(-c2ccc(Cl)c(N(C)C)c2)ccc1Cl [F149, Methyl 3-chloro-6-(4-chloro-3-(dimethylamino)phenyl)picolinate] | 95 to 100

Same assay, conditions: post-emergence, 336 h, CIRAR: canada thistle (Cirsium arvense), 140 g ai/ha, 14 days after application, read-out: Visual Growth Reduction (%) 14 Days After Application, CIRAR

SMILES | pest or weed control at 140 g/ha [%]
COc1c(Cl)ccc(-c2cc(Cl)c(Cl)c(C(=O)O)n2)c1F [F75, 3,4-Dichloro-6-(4-chloro-2-fluoro-3-methoxyphenyl) picolinic acid] | 30 to 44
COC(=O)c1nc(-c2ccc(Cl)c(N(C)C)c2)ccc1Cl [F149, Methyl 3-chloro-6-(4-chloro-3-(dimethylamino)phenyl)picolinate] | 60 to 74

Same assay, conditions: post-emergence, 336 h, CYPES: yellow nutsedge (Cyperus esculentus), 140 g ai/ha, 14 days after application, read-out: Visual Growth Reduction (%) 14 Days After Application, CYPES

SMILES | pest or weed control at 140 g/ha [%]
COc1c(Cl)ccc(-c2cc(Cl)c(Cl)c(C(=O)O)n2)c1F [F75, 3,4-Dichloro-6-(4-chloro-2-fluoro-3-methoxyphenyl) picolinic acid] | 0 to 29
COC(=O)c1nc(-c2ccc(Cl)c(N(C)C)c2)ccc1Cl [F149, Methyl 3-chloro-6-(4-chloro-3-(dimethylamino)phenyl)picolinate] | 0 to 29

Same assay, conditions: post-emergence, 336 h, DIGSA: crabgrass (Digitaria sanguinalis), 140 g ai/ha, 14 days after application, read-out: Visual Growth Reduction (%) 14 Days After Application, DIGSA

SMILES | pest or weed control at 140 g/ha [%]
COc1c(Cl)ccc(-c2cc(Cl)c(Cl)c(C(=O)O)n2)c1F [F75, 3,4-Dichloro-6-(4-chloro-2-fluoro-3-methoxyphenyl) picolinic acid] | 0 to 29
COC(=O)c1nc(-c2ccc(Cl)c(N(C)C)c2)ccc1Cl [F149, Methyl 3-chloro-6-(4-chloro-3-(dimethylamino)phenyl)picolinate] | 0 to 29

Same assay, conditions: post-emergence, 336 h, ECHCG: barnyardgrass (Echinochloa crus-galli), 140 g ai/ha, 14 days after application, read-out: Visual Growth Reduction (%) 14 Days After Application, ECHCG

SMILES | pest or weed control at 140 g/ha [%]
COc1c(Cl)ccc(-c2cc(Cl)c(Cl)c(C(=O)O)n2)c1F [F75, 3,4-Dichloro-6-(4-chloro-2-fluoro-3-methoxyphenyl) picolinic acid] | 95 to 100
COC(=O)c1nc(-c2ccc(Cl)c(N(C)C)c2)ccc1Cl [F149, Methyl 3-chloro-6-(4-chloro-3-(dimethylamino)phenyl)picolinate] | 0 to 29

Same assay, conditions: post-emergence, 336 h, IPOHE: ivy-leaf morning glory (Ipomoea hederacea), 140 g ai/ha, 14 days after application, read-out: Visual Growth Reduction (%) 14 Days After Application, IPOHE

SMILES | pest or weed control at 140 g/ha [%]
COc1c(Cl)ccc(-c2cc(Cl)c(Cl)c(C(=O)O)n2)c1F [F75, 3,4-Dichloro-6-(4-chloro-2-fluoro-3-methoxyphenyl) picolinic acid] | 30 to 44
COC(=O)c1nc(-c2ccc(Cl)c(N(C)C)c2)ccc1Cl [F149, Methyl 3-chloro-6-(4-chloro-3-(dimethylamino)phenyl)picolinate] | 30 to 44

Same assay, conditions: post-emergence, 336 h, KCHSC: kochia (Bassia scoparia), 140 g ai/ha, 14 days after application, read-out: Visual Growth Reduction (%) 14 Days After Application, KCHSC

SMILES | pest or weed control at 140 g/ha [%]
COC(=O)c1nc(-c2ccc(Cl)c(N(C)C)c2)ccc1Cl [F149, Methyl 3-chloro-6-(4-chloro-3-(dimethylamino)phenyl)picolinate] | 75 to 84

Same assay, conditions: post-emergence, 336 h, ORYSA: rice (Oryza sativa), 140 g ai/ha, 14 days after application, read-out: Visual Growth Reduction (%) 14 Days After Application, ORYSA

SMILES | pest or weed control at 140 g/ha [%]
COc1c(Cl)ccc(-c2cc(Cl)c(Cl)c(C(=O)O)n2)c1F [F75, 3,4-Dichloro-6-(4-chloro-2-fluoro-3-methoxyphenyl) picolinic acid] | 0 to 29
COC(=O)c1nc(-c2ccc(Cl)c(N(C)C)c2)ccc1Cl [F149, Methyl 3-chloro-6-(4-chloro-3-(dimethylamino)phenyl)picolinate] | 0 to 29

Same assay, conditions: post-emergence, 336 h, SETFA: giant foxtail (Setaria faberi), 140 g ai/ha, 14 days after application, read-out: Visual Growth Reduction (%) 14 Days After Application, SETFA

SMILES | pest or weed control at 140 g/ha [%]
COc1c(Cl)ccc(-c2cc(Cl)c(Cl)c(C(=O)O)n2)c1F [F75, 3,4-Dichloro-6-(4-chloro-2-fluoro-3-methoxyphenyl) picolinic acid] | 45 to 59
COC(=O)c1nc(-c2ccc(Cl)c(N(C)C)c2)ccc1Cl [F149, Methyl 3-chloro-6-(4-chloro-3-(dimethylamino)phenyl)picolinate] | 0 to 29

Same assay, conditions: post-emergence, 336 h, SORVU: grain sorghum (Sorghum vulgare), 140 g ai/ha, 14 days after application, read-out: Visual Growth Reduction (%) 14 Days After Application, SORVU

SMILES | pest or weed control at 140 g/ha [%]
COc1c(Cl)ccc(-c2cc(Cl)c(Cl)c(C(=O)O)n2)c1F [F75, 3,4-Dichloro-6-(4-chloro-2-fluoro-3-methoxyphenyl) picolinic acid] | 0 to 29
COC(=O)c1nc(-c2ccc(Cl)c(N(C)C)c2)ccc1Cl [F149, Methyl 3-chloro-6-(4-chloro-3-(dimethylamino)phenyl)picolinate] | 0 to 29

Same assay, conditions: post-emergence, 336 h, STEME: common chickweed (Stellaria media), 140 g ai/ha, 14 days after application, read-out: Visual Growth Reduction (%) 14 Days After Application, STEME

SMILES | pest or weed control at 140 g/ha [%]
COc1c(Cl)ccc(-c2cc(Cl)c(Cl)c(C(=O)O)n2)c1F [F75, 3,4-Dichloro-6-(4-chloro-2-fluoro-3-methoxyphenyl) picolinic acid] | 30 to 44
COC(=O)c1nc(-c2ccc(Cl)c(N(C)C)c2)ccc1Cl [F149, Methyl 3-chloro-6-(4-chloro-3-(dimethylamino)phenyl)picolinate] | 0 to 29

Same assay, conditions: post-emergence, 336 h, TRZAS: wheat, spring (Triticum aestivum), 140 g ai/ha, 14 days after application, read-out: Visual Growth Reduction (%) 14 Days After Application, TRZAS

SMILES | pest or weed control at 140 g/ha [%]
COc1c(Cl)ccc(-c2cc(Cl)c(Cl)c(C(=O)O)n2)c1F [F75, 3,4-Dichloro-6-(4-chloro-2-fluoro-3-methoxyphenyl) picolinic acid] | 0 to 29
COC(=O)c1nc(-c2ccc(Cl)c(N(C)C)c2)ccc1Cl [F149, Methyl 3-chloro-6-(4-chloro-3-(dimethylamino)phenyl)picolinate] | 0 to 29
